Values quoted from earlier work in patent US20240408173A1, “SILK FIBROIN-CONTAINING COMPOSITION AND METHODS OF USE THEREOF” (Georgetown University, priority 2017, published 2024).

- Water solubility: No
SMILES: FC(F)(F)C(F)(F)C(F)(F)C(F)(F)C(F)(F)C(F)(F)C(F)(F)C(F)(F)Br [PFC, perfluorooctylbromide]
